Test results taken from patent EP2305274A1, “Use of WNT stimulators for treating demyelinating diseases” (Centre National de la Recherche Scientifique (CNRS), priority 2009, dated 2011).
Where two headings read alike, the source gives them in different places.

What was measured:
GSK3 = details: cited from earlier work
MSC80 cells = assay: Western blot of MPZ, PMP22 and β-catenin proteins in MSC80 cells; format: cell-based, mouse; details: SB216763 10 µM, after 3h, lasted until 24h
Text: Western blot analysis confirmed the stimulation of MPZ and PMP22 expression. […] This difference may be due to specific mRNA and protein half-life.
The increase in PMP22 protein expression was timedependent.

[1] = GSK3 inhibitors, see Meijer L et al, Trends in Pharmacological Sciences 2004

Compound	IC50 (GSK3; [1]) [nM]	other results
Cn1cc(C2=C(c3ccc(Cl)cc3Cl)C(=O)NC2=O)c2ccccc21 [SB216763]	[…]	expression of MPZ protein (Western blot) (MSC80 cells): enhanced; expression of PMP22 protein (Western blot) (MSC80 cells): enhanced; expression of β-catenin protein (Western blot) (MSC80 cells): enhanced
OCCCNc1cc(-c2ccnc(Nc3cccc(Cl)c3)n2)ccn1 [CGP60474, 3-{4-[2-(3-chlorophenylamino)-pyrimidin-4-yl]-pyridin-2-yl-amino}-propanol]	< 100	
CHIR98014		IC50 (GSK3): < 100 nM
CC(=O)O/N=C1/C(=C2/C(=O)Nc3cc(Br)ccc32)Nc2ccccc21 [6-bromoindirubin-3'acetoxime, (2'Z,3'E)-6-Bromoindirubin-3'-acetoxime]	< 100	
[H]/N=C(/N)SCCCn1cc(C2=C(c3cn(C)c4ccccc34)C(=O)NC2=O)c2ccccc21 [Ro318220]	< 100	
Nc1cccc(-c2cc3c(Oc4cccc(O)c4)ncnc3[nH]2)c1 [TWS119]	< 100	
